Row | melting point [°C] | Structure (SMILES)
1 | 150 | Cn1cncc1C(c1ccc2c(c1)c(-c1cccc(Cl)c1)nc1nnnn12)n1ccnc1-c1ccccc1 (stereo not drawn) [Compound 10, 5-(3-chlorophenyl)-7-[(1-methyl-1H-imidazol-5-yl)(2-phenyl-1H-imidazol-1-yl)methyl]-tetrazolo[1,5-a]quinazoline]
2 | 188 | Cn1cncc1C(O)(c1ccoc1)c1ccc2c(c1)c(-c1cccc(Cl)c1)cc1nnnn12 (stereo not drawn) [Compound 3, 5-(3-chlorophenyl)-α-(3-furanyl)-α-(1-methyl-1H-imidazol-5-yl)-tetrazolo[1,5-a]quinoline-7-methanol]
3 | 192 | Cn1cncc1C(O)(c1ccc2ncccc2c1)c1ccc2c(c1)c(-c1cccc(Cl)c1)nc(=O)n2C (stereo not drawn) [Compound 7, 4-(3-chlorophenyl)-6-[hydroxy(1-methyl-1H-imidazol-5-yl)-6-quinolinylmethyl]-1-methyl-2(1H)-quinazolinone]
